# Results as given in patent US10391095B2, “DNA-PK inhibitors” (Vertex Pharmaceuticals Incorporated, priority 2012, dated 2019).
# Target: DNA-PK (Homo sapiens, UniProt P78527)
# Assay: DNA-PK inhibition assay (radiometric, 33P-ATP)
# Type: biochemical
# Conditions: 100 μM ATP, competitive tight-binding fit
# Outline: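 33P transfer from 100 µM ATP to a DNA-PK peptide (0.8 mg/mL) is measured after 45 min, using about 6 nM enzyme activated by 10 µg/mL sheared dsDNA (HEPES pH 7.5, MgCl2, DTT). Filter-bound counts fitted to a competitive tight-binding inhibition model give Ki.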
row,Structure (SMILES),Ki [nM]
1,CNC(=O)c1ccnc2c([C@H](C)CNc3cc(-c4cnc(OC)c(OC)c4)ncn3)ccc(F)c12 [Compound 906],< 30
2,CNC(=O)c1ccnc2c([C@H](C)CNc3cc(-c4cnc(C)s4)ncn3)cccc12 [Compound 778],< 30
3,CNC(=O)c1ccnc2c([C@H](C)CNc3cc(-c4ccc(C#N)nc4)ncn3)ccc(F)c12 [Compound 909],< 30
4,CNC(=O)c1ccc([C@H](C)CNc2cc(-c3ccc4ncccc4c3)ncn2)c(OC)c1 [Compound 454],< 30
5,COc1cc(C(=O)NCC(F)F)ccc1C(C)CNc1cc(-c2ccc(C)nc2)ncn1 (stereo not drawn) [Compound 296],< 30
6,CNC(=O)c1ccc([C@H](C)CNc2cc(-c3cnc(C)nc3)ncn2)c(OC)c1 [Compound 308],< 30
7,CNC(=O)c1ccc([C@H](C)CNc2cc(-c3ccc(NC4CCN(C)CC4)nc3)ncn2)c(OC)c1 [Compound 348],< 30
8,CNC(=O)c1ccnc2c([C@H](C)CNc3cc(-c4ccc(C5CC5)nc4)ncn3)cccc12 [Compound 847],< 30
9,CNC(=O)c1cc(OC)c(C(C)CNc2cc(-c3ccc(C)nc3)ncn2)cn1 (stereo not drawn) [Compound 376],< 30
10,CNC(=O)c1c(F)cnc2c([C@H](C)CNc3cc(-c4cnc(OC)c(OC)c4)ncn3)cccc12 [Compound 898],< 30
11,COc1ccccc1[C@H](C)CNc1cc(-c2ccc(NCC#N)nc2)ncn1 [Compound 202],< 30
12,CNC(=O)c1c(F)cnc2c([C@H](C)CNc3cc(-c4cnc(C5CCC5)nc4)ncn3)cccc12 [Compound 856],< 30
13,CNC(=O)c1c(F)cnc2c([C@H](C)CNc3cc(-c4cnnc(C)c4)ncn3)cccc12 [Compound 968],< 30
14,COc1ccccc1[C@H](C)CNc1cc(-c2cnc3c(cnn3C)c2)ncn1 [Compound 172],< 30
15,CNC(=O)c1ccc([C@H](C)CNc2cc(-c3cn(C4COC4)c4ncccc34)ncn2)c(OC)c1 [Compound 481],< 30
16,"CNC(=O)c1ccnc2c([C@H](C)CNc3cc(-c4ccc(N5CCOC(C)C5)nc4)ncn3)cccc12 (single isomer, unassigned) [Compound 713]",< 30

row,Structure (SMILES),Ki [nM]
1,CC(=O)N1CCOc2c([C@H](C)CNc3cc(-c4ccc(C)nc4)ncn3)cccc21 [Compound 504],< 30
2,CNC(=O)c1c(-n2ccnc2)cnc2c([C@H](C)CNc3cc(-c4ccc(C)nc4)ncn3)cccc12 [Compound 763],< 30
3,"CCN1CCCC1CNc1ccc(-c2cc(NC[C@@H](C)c3cccc4c(C(=O)NC)ccnc34)ncn2)cn1 (single isomer, unassigned) [Compound 704]",< 30
4,CC(=O)N1CCN(c2ccc(-c3cc(NCC(C)c4ccccc4OCc4ccccc4)ncn3)cn2)CC1 (stereo not drawn) [Compound 135],< 30
5,CCNc1ccc(-c2cc(NC[C@@H](C)c3ccnc4cc(C)oc34)ncn2)cn1 [Compound 573],< 30
6,COc1ccccc1CCNc1cc(-c2cnc3c(cnn3C)c2)ncn1 [Compound 42],< 30
7,CNC(=O)c1ccc([C@H](C)CNc2cc(-c3ccc4c(cnn4C)c3)ncn2)c(OC)c1 [Compound 293],< 30
8,CCC(CO)Nc1ccc(-c2cc(NC[C@@H](C)c3cccc4c(C(=O)NC)ccnc34)ncn2)cn1 (stereo partly drawn) [Compound 724],< 30
9,CCc1ncc(-c2cc(NC[C@@H](C)c3cccc4c(C(=O)NC)ccnc34)ncn2)cn1 [Compound 829],< 30
10,COc1cscc1C(C)CNc1cc(-c2cnc3c(cnn3C3CCN(C)CC3)c2)ncn1 (stereo not drawn) [Compound 228],< 30
11,Cc1ccc2cc(-c3cc(NC[C@@H](C)c4ccnc5c4OCCO5)ncn3)ccc2n1 [Compound 555],< 30
12,CNC(=O)c1ccnc2c([C@H](C)CNc3cc(-c4ccc(NC5CCN(C)CC5)nc4)ncn3)cccc12 [Compound 635],< 30
13,CCOc1ccc(-c2cc(NC[C@@H](C)c3ccc(F)c4c(C(=O)NC)ccnc34)ncn2)cn1 [Compound 934],< 30
14,CNC(=O)c1ccnc2c([C@H](C)CNc3cc(-c4ccc(NCc5nc6ccccc6[nH]5)nc4)ncn3)cccc12 [Compound 710],< 30
15,CCN1CCN(c2ccc(-c3cc(NC[C@@H](C)c4cccc5c(C(=O)NC)ccnc45)ncn3)cn2)CC1=O [Compound 716],< 30
16,CNC(=O)c1ccnc2c([C@H](C)CNc3cc(-c4ccc5c(c4)CCO5)ncn3)cccc12 [Compound 842],< 30

# The next lines start with the values.
row,Ki [nM],Structure (SMILES)
1,< 30,CNC(=O)c1ccnc2c([C@H](C)CNc3cc(-c4ccc(NC5CC5)nc4)ncn3)cccc12 [Compound 628]
2,< 30,CNC(=O)c1ccnc2c([C@H](C)CNc3cc(-c4cnc(O)nc4)ncn3)cccc12 [Compound 768]
3,< 30,CNC(=O)c1ccnc2c([C@H](C)CNc3cc(-c4ccc(F)nc4)ncn3)cccc12 [Compound 603]
4,< 30,CNC(=O)c1ccnc2c([C@H](C)CNc3cc(-c4ccc(C)nc4)ncn3)cc(F)cc12 [Compound 562]
5,< 30,Cc1ccc(-c2cc(NCC(C)c3cccc4nsnc34)ncn2)cn1 (stereo not drawn) [Compound 398]
6,< 30,Cc1ccc(-c2cc(NCC(C)c3cccc4c3OC(C)(C)C4)ncn2)cn1 (stereo not drawn) [Compound 85]
7,< 30,CCNc1ccc(-c2cc(NC[C@@H](C)c3ccnc4c3OCC4)ncn2)cn1 [Compound 486]
8,< 30,Cc1ccc(-c2cc(NCC(C)c3cccc4c(C)ncnc34)ncn2)cn1 (stereo not drawn) [Compound 838]
9,< 30,COc1sccc1C(C)CNc1cc(-c2cnc3c(cnn3C3CCN(C)CC3)c2)ncn1 (stereo not drawn) [Compound 264]
10,< 30,CNCCN(C)c1ccc(-c2cc(NC[C@@H](C)c3ccc(C(=O)NC)cc3OC)ncn2)cn1 [Compound 368]
11,< 30,CNC(=O)c1ccc([C@H](C)CNc2cc(-c3ccc(NCC4CC4)nc3)ncn2)c(OC)c1 [Compound 364]
12,< 30,COc1cc(C(N)=O)ccc1C(C)CNc1cc(-c2ccc(C)nc2)ncn1 (stereo not drawn) [Compound 122]
13,< 30,COc1ccccc1CCNc1cc(-c2ccc(C)nc2)ncn1 [Compound 11]
14,< 30,C[C@H](CNc1cc(-c2cc(F)c3ncccc3c2)ncn1)c1ccnc2c1OCC2 [Compound 597]
15,< 30,COc1cc(C=O)ccc1C(C)CNc1cc(-c2ccc(C)nc2)ncn1 (stereo not drawn) [Compound 378]
16,< 30,CNC(=O)c1ccnc2c([C@H](C)CNc3cc(-c4cnc(N)c(F)c4)ncn3)cccc12 [Compound 867]
17,< 30,CNC(=O)c1ccnc2c([C@H](C)CNc3cc(-c4cncnc4)ncn3)cccc12 [Compound 605]
18,< 30,"CNc1ncc(-c2cc(NC[C@@H](C)c3ccnc4c3OCCO4)ncn2)cn1 [Compound 462, (S)—N^6-(2-(2,3-dihydro-[1,4]dioxino[2,3-b]pyridin-8-yl)propyl)-N^2′-methyl-[4,5′-bipyrimidine]-2′,6-diamine]"
19,< 30,"COc1ccccc1[C@H](C)CNc1cc(-c2cnc3c(cnn3CC(O)CO)c2)ncn1 (single isomer, unassigned) [Compound 149]"
20,< 30,CNC(=O)c1ccnc2c([C@H](C)CNc3cc(-c4ccc(C(C)C)nc4)ncn3)cccc12 [Compound 848]
21,< 30,CNc1ccccc1[C@H](C)CNc1cc(-c2ccc(C(=O)NCCC#N)nc2)ncn1 [Compound 408]
22,< 30,CNC(=O)c1ccnc2c([C@H](C)CNc3cc(-c4ccc(N5CCN(CC(F)(F)F)CC5)nc4)ncn3)cccc12 [Compound 780]

row,Ki [nM],Structure (SMILES)
1,< 30,CNC(=O)c1c(F)cnc2c([C@H](C)CNc3cc(-c4cnc(OC5CCC5)nc4)ncn3)cccc12 [Compound 981]
2,< 30,CNC(=O)c1ccnc2c([C@H](C)CNc3cc(-c4ccc(C(=O)O)s4)ncn3)cccc12 [Compound 775]
3,< 30,CNC(=O)c1ccnc2c([C@H](C)CNc3cc(-c4cnc(OC5CCC5)nc4)ncn3)ccc(F)c12 [Compound 982]
4,< 30,COc1cscc1C(C)CNc1cc(-c2ccc(N3CCN(C)CC3)nc2)ncn1 (stereo not drawn) [Compound 146]
5,< 30,CNC(=O)c1ccnc2c([C@H](C)CNc3cc(-c4ccc5c(c4)OCCN5C)ncn3)cccc12 [Compound 843]
6,< 30,CNC(=O)c1ccnc2c([C@H](C)CNc3cc(-c4cncc(CO)c4)ncn3)cccc12 [Compound 956]
7,< 30,CCOc1ccc(-c2cc(NC[C@@H](C)c3cccc4c(C(=O)NC)c(F)cnc34)ncn2)cn1 [Compound 932]
8,< 30,Cc1ccc(-c2cc(NCC(C)c3cccc4scnc34)ncn2)cn1 (stereo not drawn) [Compound 333]
9,< 30,CNC(=O)c1c(F)cnc2c([C@H](C)CNc3cc(-c4ccc(C(C)(C)O)nc4)ncn3)cccc12 [Compound 866]
10,< 30,COc1ccccc1CCNc1cc(-c2cnc3[nH]ccc3c2)ncn1 [Compound 8]
11,< 30,Cc1ccc(-c2cc(NC[C@@H](C)c3cccc4c3OCCN4)ncn2)cn1 [Compound 513]
12,< 30,Cc1ccc(-c2cc(NCC(C)c3ccnc4cccnc34)ncn2)cn1 (stereo not drawn) [Compound 331]
13,< 30,CNC(=O)c1ccc([C@H](C)CNc2cc(-c3ccc4c(ccn4C)c3)ncn2)c(OC)c1 [Compound 268]
14,< 30,CNC(=O)c1c(F)cnc2c([C@H](C)CNc3cc(-c4cnc(C)c(F)c4)ncn3)cccc12 [Compound 973]
15,< 30,COc1cscc1C(C)CNc1cc(-c2cnc3c(cnn3CCO)c2)ncn1 (stereo not drawn) [Compound 261]
16,< 30,Cc1ccc(-c2cc(NCC(C)c3cccc4nc(C)c(C)nc34)ncn2)cn1 (stereo not drawn) [Compound 434]
17,< 30,CNC(=O)c1ccnc2c([C@H](C)CNc3cc(-c4ccc(OC(C)C)nc4)ncn3)cccc12 [Compound 959]
18,< 30,CNC(=O)c1ccc([C@H](C)CNc2cc(-c3cnc4c(cnn4CC(C)(C)O)c3)ncn2)c(OC)c1 [Compound 285]
19,< 30,CNC(=O)c1c(F)cnc2c([C@H](C)CNc3cc(-c4cnc(C)nc4)ncn3)ccc(F)c12 [Compound 645]
20,< 30,CNC(=O)c1ccnc2c([C@H](C)CNc3cc(-c4ccc(N)nc4)ncn3)cccc12 [Compound 586]
21,< 30,CNC(=O)c1ccnc2c([C@H](C)CNc3cc(-c4cnc(OC)s4)ncn3)cccc12 [Compound 779]
